Source: ChEMBL document CHEMBL4808219, “Exploration of Benzo[b]carbazole-6,11-diones as anticancer agents: Synthesis and studies of hTopoIIα inhibition and apoptotic effects” (Bioorg Med Chem Lett, 2021)
Active and inactive are the calls of the source. The rule behind the calls is not given here.

Key:
MDA-MB-231 [1] = test: Cytotoxicity against human MDA-MB-231 cells assessed as reduction in cell survival by clonogenic assay; format: functional, cell-based
MCF-10A = test: Cytotoxicity against human MCF-10A cells; format: cell-based
MCF7 = test: Cytotoxicity against human MCF7 cells assessed as reduction in cell viability incubated for 48 hrs by MTT assay; format: functional, cell-based
MDA-MB-231 [2] = test: Cytotoxicity against human MDA-MB-231 cells assessed as reduction in cell viability incubated for 48 hrs by MTT assay; format: functional, cell-based
HEK-293T = test: Cytotoxicity against human HEK293T cells assessed as reduction in cell viability incubated for 48 hrs by MTT assay; format: cell-based
[3] = Cytotoxicity against human H357 cells assessed as reduction in cell viability incubated for 48 hrs by MTT assay; format: functional, cell-based
[4] = molecular target: DNA topoisomerase 2-alpha (Homo sapiens) (UniProt P11388); test: Inhibition of human topoisomerase 2alpha assessed as reduction in decatenation of kinetoplast DNA by agarose gel electrophoresis method
[5] = Homo sapiens, MCF7, 48 h, read-out: IC50
[6] = Homo sapiens, MDA-MB-231, 48 h, read-out: IC50
[7] = Homo sapiens, H357, 48 h, read-out: IC50

Chain of DNA topoisomerase 2-alpha (Homo sapiens) (P11388 whole entry): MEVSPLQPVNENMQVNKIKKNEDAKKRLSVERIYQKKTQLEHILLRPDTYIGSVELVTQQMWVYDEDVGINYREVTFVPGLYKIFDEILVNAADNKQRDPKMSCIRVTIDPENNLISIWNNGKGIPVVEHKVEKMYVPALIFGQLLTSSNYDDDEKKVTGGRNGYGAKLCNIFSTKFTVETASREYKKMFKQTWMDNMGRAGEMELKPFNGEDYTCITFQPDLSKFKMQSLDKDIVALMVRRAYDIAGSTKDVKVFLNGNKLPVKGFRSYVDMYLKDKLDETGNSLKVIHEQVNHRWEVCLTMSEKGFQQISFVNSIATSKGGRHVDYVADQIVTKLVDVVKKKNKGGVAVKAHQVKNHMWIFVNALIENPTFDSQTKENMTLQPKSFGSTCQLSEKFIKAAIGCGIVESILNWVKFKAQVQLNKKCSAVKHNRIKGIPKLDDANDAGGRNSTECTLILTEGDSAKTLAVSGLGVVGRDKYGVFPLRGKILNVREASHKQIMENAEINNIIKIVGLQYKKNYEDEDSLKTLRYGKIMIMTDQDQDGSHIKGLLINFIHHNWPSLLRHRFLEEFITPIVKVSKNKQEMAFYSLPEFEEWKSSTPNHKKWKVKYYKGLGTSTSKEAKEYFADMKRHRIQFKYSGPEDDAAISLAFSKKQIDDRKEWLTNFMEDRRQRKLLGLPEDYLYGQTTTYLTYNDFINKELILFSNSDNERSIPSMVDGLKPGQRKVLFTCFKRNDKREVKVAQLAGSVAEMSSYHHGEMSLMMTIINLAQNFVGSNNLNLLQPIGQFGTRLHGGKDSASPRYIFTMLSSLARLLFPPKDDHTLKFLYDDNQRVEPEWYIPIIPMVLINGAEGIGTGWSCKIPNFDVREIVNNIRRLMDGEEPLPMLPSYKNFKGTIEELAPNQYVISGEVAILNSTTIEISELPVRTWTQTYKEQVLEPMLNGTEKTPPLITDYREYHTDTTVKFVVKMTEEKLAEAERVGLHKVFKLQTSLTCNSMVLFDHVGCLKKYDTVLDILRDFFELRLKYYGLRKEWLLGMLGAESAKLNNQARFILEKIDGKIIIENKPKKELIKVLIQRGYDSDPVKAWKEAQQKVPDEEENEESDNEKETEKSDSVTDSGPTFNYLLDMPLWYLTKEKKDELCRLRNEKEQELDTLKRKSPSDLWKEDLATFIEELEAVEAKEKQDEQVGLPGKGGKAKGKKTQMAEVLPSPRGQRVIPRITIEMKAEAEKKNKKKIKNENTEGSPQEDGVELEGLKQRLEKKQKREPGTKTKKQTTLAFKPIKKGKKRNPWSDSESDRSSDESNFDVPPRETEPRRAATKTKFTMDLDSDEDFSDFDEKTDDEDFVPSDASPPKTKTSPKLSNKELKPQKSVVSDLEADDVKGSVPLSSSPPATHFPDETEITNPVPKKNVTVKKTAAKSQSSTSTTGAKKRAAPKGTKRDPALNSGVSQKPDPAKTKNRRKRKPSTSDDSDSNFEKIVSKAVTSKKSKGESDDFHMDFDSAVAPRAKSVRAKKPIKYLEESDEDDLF

Row | SMILES | IC50 (MDA-MB-231 [1]) [µM] | IC50 (MCF-10A) [µM] | IC50 (MCF7; [5]) [µM] | IC50 (MDA-MB-231 [2]; [6]) [µM] | IC50 (HEK-293T) [µM] | IC50 [3, 7] [µM] | IC50 (MCF7; mcf7) | IC50 (MDA-MB-231 [2]; mda-mb-231) | IC50 ([3]; h357) | inhibition [4]
1 | COc1cc([C@@H]2c3cc4c(cc3[C@@H](O[C@@H]3O[C@@H]5CO[C@@H](C)O[C@H]5[C@H](O)[C@H]3O)[C@H]3COC(=O)[C@H]23)OCO4)cc(OC)c1O [ETOPOSIDE] | 42 | > 120 | 45 | 48 | 22 | 32 | – | – | – | –
2 | O=C1C=C(Nc2ccc(F)c(F)c2)C(=O)c2ccccc21 | – | – | 7.2 | 7 | 9.4 | 8.4 | – | – | – | –
3 | O=C1C=C(Nc2nccs2)C(=O)c2ccccc21 | – | – | 6.4 | 6.3 | 7.6 | 7.2 | – | – | – | –
4 | COc1cc(NC2=CC(=O)c3c(OC)cccc3C2=O)cc(OC)c1OC | – | – | – | – | – | – | Not Active | Not Active | Not Active | –
5 | CCC(C)c1ccc(NC2=CC(=O)c3ccccc3C2=O)cc1 (configuration not stated) | – | – | 4.2 | 4.2 | 5.2 | 4 | – | – | – | –
6 | COc1cc2[nH]c3c(c2c(OC)c1OC)C(=O)c1c(O)cccc1C3=O | – | – | – | – | – | – | Not Active | Not Active | Not Active | –
7 | O=C1C=C(Nc2ccc3c(c2)OCO3)C(=O)c2ccccc21 | – | – | 9.6 | 9.4 | 10.2 | 10.4 | – | – | – | –
8 | O=C1c2ccccc2C(=O)c2c1[nH]c1ccccc21 [BENZOCARBAZOLEDIONE] | – | – | 4.5 | 5.2 | 5.8 | 5 | – | – | – | –
9 | COc1cc2[nH]c3c(c2c(OC)c1OC)C(=O)c1ccccc1C3=O | – | – | 8.2 | 8.1 | 10.5 | 9.4 | – | – | – | Active
10 | CN(C)CCCNC1=CC(=O)c2ccccc2C1=O | – | – | 6.3 | 6.4 | 8.1 | 7.3 | – | – | – | –
11 | CCC(C)c1ccc2[nH]c3c(c2c1)C(=O)c1ccccc1C3=O (configuration not stated) | – | – | 6.3 | 5.4 | 9 | 7.1 | – | – | – | Active
12 | O=C1C=C(NCCCN2CCOCC2)C(=O)c2ccccc21 | – | – | 6.2 | 6.4 | 7.2 | 6.9 | – | – | – | –
13 | COc1ccc(NC2=CC(=O)c3ccccc3C2=O)cc1 | – | – | 4.5 | 4.8 | 5.5 | 4.6 | – | – | – | –
14 | Cn1c2c(c3ccccc31)C(=O)c1ccccc1C2=O | – | – | 5.4 | 6.5 | 8.4 | 7.3 | – | – | – | Active
15 | COc1cc(NC2=CC(=O)c3c(O)cccc3C2=O)cc(OC)c1OC | – | – | – | – | – | – | Not Active | Not Active | Not Active | –
16 | O=C1c2ccccc2C(=O)c2c1[nH]c1ccc(Cl)cc21 | – | – | 4.5 | 4.4 | 6.3 | 4.6 | – | – | – | Active
17 | COc1cc(NC2=CC(=O)c3ccccc3C2=O)cc(OC)c1OC | – | – | 7 | 6.9 | 8.4 | 6.8 | – | – | – | –
18 | COc1ccc2[nH]c3c(c2c1)C(=O)c1ccccc1C3=O | – | – | 8 | 8.7 | 10.5 | 9.6 | – | – | – | –
19 | O=C1C=C(Nc2ccc(F)cc2)C(=O)c2ccccc21 | – | – | 4.1 | 4.9 | 5.2 | 3.8 | – | – | – | –
20 | O=C1C=C(Nc2cccc(Cl)c2)C(=O)c2ccccc21 | – | – | 4.2 | 4.1 | 5.2 | 4 | – | – | – | –

Row | SMILES | IC50 (MDA-MB-231 [1]) [µM] | IC50 (MCF-10A) [µM] | IC50 (MCF7; [5]) [µM] | IC50 (MDA-MB-231 [2]; [6]) [µM] | IC50 (HEK-293T) [µM] | IC50 [3, 7] [µM] | IC50 (MCF7; mcf7) | IC50 (MDA-MB-231 [2]; mda-mb-231) | IC50 ([3]; h357) | inhibition [4]
21 | O=C1C(Nc2ccccc2)=CC(=O)c2c(O)cccc21 | – | – | 3.8 | 3.7 | 4.2 | 4.9 | – | – | – | –
22 | Cc1ccc2[nH]c3c(c2c1)C(=O)c1ccccc1C3=O | – | – | 5.2 | 4.9 | 8 | 6.1 | – | – | – | Active
23 | O=C1c2ccccc2C(=O)c2c1[nH]c1cc(F)c(F)cc21 | – | – | – | – | – | – | Not Active | Not Active | Not Active | –
24 | O=C1C=C(NCCCO)C(=O)c2ccccc21 | – | – | 9.6 | 9.8 | 10.3 | 9.9 | – | – | – | –
25 | COc1ccc(NC2=CC(=O)c3ccccc3C2=O)cc1OC | – | – | 6.4 | 6.2 | 6.3 | 6.2 | – | – | – | Active
26 | Cc1cc2[nH]c3c(c2cc1C)C(=O)c1ccccc1C3=O | – | – | 4.2 | 6.3 | 7 | 6.1 | – | – | – | –
27 | O=C1C=C(Nc2ccccc2)C(=O)c2ccccc21 | – | – | 4.4 | 5.3 | 5.6 | 4.2 | – | – | – | –
28 | COc1cccc2c1C(=O)C=C(Nc1ccccc1)C2=O | – | – | 6 | 6.2 | 7.7 | 6.4 | – | – | – | –
29 | COc1ccc2c3c([nH]c2c1)C(=O)c1ccccc1C3=O | – | – | 7 | 7.5 | 9.8 | 7.9 | – | – | – | –
30 | Cc1ccc(NC2=CC(=O)c3ccccc3C2=O)cc1 | – | – | 6.4 | 5.3 | 5.6 | 5.2 | – | – | – | Active
31 | COc1cc2[nH]c3c(c2cc1OC)C(=O)c1ccccc1C3=O | – | – | 8.4 | 7.4 | 10.2 | 8.7 | – | – | – | –
32 | O=C1C=C(Nc2ccc(Cl)cc2)C(=O)c2ccccc21 | – | – | 4.1 | 3.9 | 4.9 | 4.8 | – | – | – | –
33 | O=C1c2ccccc2C(=O)c2c1[nH]c1ccc(F)cc21 | – | – | 4.7 | 4.8 | 7.5 | 5.6 | – | – | – | Active
34 | CN1CCN(CCCNC2=CC(=O)c3ccccc3C2=O)CC1 | – | – | 10.4 | 10 | 10.9 | 10.9 | – | – | – | –
35 | Cc1ccc(NC2=CC(=O)c3ccccc3C2=O)cc1C | – | – | 5.3 | 5.9 | 7.7 | 6.4 | – | – | – | –
36 | COc1cc2[nH]c3c(c2c(OC)c1OC)C(=O)c1c(OC)cccc1C3=O | – | – | – | – | – | – | Not Active | Not Active | Not Active | –
37 | O=C1c2ccccc2C(=O)c2c1[nH]c1cc(Cl)ccc21 | – | – | 4.4 | 5.5 | 7.3 | 6.5 | – | – | – | Active
38 | O=C1C=C(Nc2cnccn2)C(=O)c2ccccc21 | – | – | 7.2 | 7 | 9 | 8.1 | – | – | – | –
39 | COc1cccc2c1C(=O)c1c([nH]c3ccccc13)C2=O | – | – | 9.8 | 8.9 | 10.4 | 10.5 | – | – | – | –
